EC50, IC50 and outcome data for 66 compounds are collected here from PubChem BioAssay AID179 (DTP/NCI, 2004).

For this experiment, the system named is CEM cells HIV-1 protection, formazan growth assay. Kind of experiment: NCI AIDS Antiviral Assay. As to conditions: for IC50: measured here: growth of uninfected CEM cells. As to the method: The ability of compounds to protect human CEM cells from HIV-1 infection is measured as a screen for new compounds capable of inhibiting the HIV virus. Five concentrations of drug were tested on uninfected and infected cells and cell growth was measured using a soluble formazan assay. […] Compounds that provided at least 50% protection were retested. Compounds that provided at least 50% protection on retest were listed as moderately active. Compounds that reproducibly provided 100% protection were listed as confirmed active. […] Note that the inability to provide protection could be due to toxicity.

Activity calls are given as the source filed them.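 Rule for the calls: active = compounds giving half or more protection of infected cells from virus-caused growth loss, again on retest; inactive = the rest.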

As usually defined, the EC50 is the concentration that produces a half-maximal response. By IC50 is commonly meant the point on the concentration scale where inhibition reaches its midpoint. High values mean weaker potency, low ones greater potency. For the compound `c1cc(-c2ccsc2-c2ccsc2)cs1`, the EC50 was above 200 µM and the IC50 is 52.5 µM.
For the compound `Cc1cn(COCCOP(=O)(OCOC(=O)C(C)(C)C)OCOC(=O)C(C)(C)C)c(=O)[nH]c1=O`, the EC50 is above 200 µM and the IC50 came out at 110 µM.
For the compound `Cc1cc(N=Nc2cc(S(=O)(=O)O)c(N)cc2N)ccc1N=Nc1ccc2cc(S(=O)(=O)O)cc(S(=O)(=O)O)c2c1`, the outcome was inactive.
On to `C/C(=C\O[Si](C)(C)C)c1ccccc1`, for which the EC50 was above 200 µM and the IC50 was above 200 µM.
For `COc1cc(/C=C2\N=C(C)N(n3c(-c4ccccc4)nc4ccccc4c3=O)C2=O)cc(OC)c1OC`, the EC50 was above 200 µM and the IC50 came out at 38.9 µM.
On to `CC/C=C\C/C=C\C/C=C\CCCCCCCC(=O)OCC(COC1OC(CS(=O)(=O)O)C(O)C(O)C1O)OC(=O)CCCCCCCCCCCCCCC` (stereo not given), for which the EC50 is above 10 µM and the IC50 was 5.62 µM.
The matching figures for `CCS(=O)(=O)CCn1cnc2c1c(=O)n(C)c(=O)n2C`: above 200 µM and above 200 µM.
`Cn1nc(-c2ccccc2)c2c(-c3ccccc3)c3cc(Cl)ccc3nc21`: the EC50 is above 100 µM and the IC50 is above 100 µM.
As for `O=[N+]([O-])c1cc(F)ccc1Sc1ccccc1`, the EC50 was above 200 µM and the IC50 was found to be 95.5 µM.
As for `COc1cc(C)c2c(c1)CN1CN2Cc2cc(OC)cc(C)c21`, the outcome was inactive.
In the case of `CN(C)CCNC(=O)c1cccc2c1Oc1cccc([N+](=O)[O-])c1O2`, the EC50 was above 200 µM and the IC50 worked out at 22.4 µM.
In the case of `N#C/C(=C\c1cccc(Cl)c1Cl)c1ccccc1`, the EC50 was above 24.5 µM and the IC50 is above 24.5 µM.
As to `COC(=O)C(=O)C(C(=O)C(=O)Nc1ccc(C)cc1)c1nc2ccc(C(=O)c3ccccc3)cc2[nH]c1=O` (stereo not given), the EC50 is above 26.3 µM and the IC50 is above 26.3 µM.
As to `O=C(CCc1nc(=S)[nH][nH]1)Nc1cc(Cl)ccc1Cl`, the EC50 is above 407 µM and the IC50 is above 407 µM.
For `COc1ccc(CN(Cc2ccccc2)c2ncccn2)cc1`, the EC50 was above 17 µM and the IC50 was above 17 µM.
On to `NC(CSS(=O)(=O)O)=NC1CCCCC1`, for which the EC50 was above 200 µM and the IC50 is 138 µM.
The matching figures for `Cc1ccc([P+](CCN2C(=O)c3ccccc3C2=O)(c2ccc(C)cc2)c2ccc(C)cc2)cc1`: above 200 µM and 10 µM.
Take `C1OC2OCC1O2`: the EC50 is above 2450 µM and the IC50 was above 2450 µM.
As to `COC(=O)CCC(=O)Nc1cc(C)ccc1C`, the EC50 was above 1070 µM and the IC50 was above 1070 µM.
For `CC(C)(C)C(=O)/C=C/c1cccc(C#N)c1`, the EC50 was above 123 µM and the IC50 turned out to be 6.61 µM.
Take `CCOC(=O)/C(C#N)=c1/s/c(=C(\O)N/N=C/c2ccc(OC)cc2)c(=N)n1-c1ccccc1`: the EC50 is above 4.27 µM and the IC50 is above 4.27 µM.
Take `O=c1[nH]c(=O)n(C2CC(O)C(CO)O2)c2nc3ccc4cc5ccccc5cc4c3nc12` (stereo not given): the EC50 is above 50.1 µM and the IC50 was determined as 39.8 µM.
The matching figures for `CC(C)(C)[Si](C)(C)OCC1OC(n2cnc3c(N)ncnc32)C(O[Si](C)(C)C(C)(C)C)C1O[Si](C)(C)C(C)(C)C` (stereo not given): above 200 µM and 44.7 µM.
The matching figures for `COc1cc2c(cc1O)[C@H](C)C(c1ccccc1OC)O2` (stereo not given in full): above 66.1 µM and 3.98 µM.
With `OCc1ccccc1C1CSCSC1`, the EC50 is above 219 µM and the IC50 is above 219 µM.
As to `O=C1OC(c2cccs2)Sc2ccccc21` (stereo not given), the EC50 is above 200 µM and the IC50 stood at 195 µM.
For `N#Cc1sc2c(c1OC(=O)c1ccc(Cl)cc1)c(=O)n(-c1ccccc1)c(=S)n2-c1ccccc1` the same measures were above 200 µM and 1.2 µM.
For `COc1ccc(/C=[N+](\[O-])[C@H](COCc2ccccc2)c2ccccc2)cc1` the same measures were above 72.4 µM and above 72.4 µM.
For `CC(C)N(CCn1c2c3ccccc3ccc2c2oc(=O)c3ccccc3c21)C(C)C` the same measures were above 22.4 µM and above 22.4 µM.
On to `[Cu].c1ccc2c3[n-]c(c2c1)/N=c1\[n-]/c(c2ccccc12)=N\c1[n-]c(c2ccccc12)/N=c1\[n-]/c(c2ccccc12)=N\3`, for which the EC50 is above 200 µM and the IC50 worked out at 51.3 µM.
For the compound `CC12CCC(C(=Nc3cc(C(F)(F)F)cc(C(F)(F)F)c3)C1=O)C2(C)C` (stereo not given), the EC50 was above 200 µM and the IC50 came to 37.2 µM.
The matching figures for `CCOC1N=C(c2ccccc2)c2cc(Cl)ccc2NC1=O` (stereo not given): above 22.9 µM and above 22.9 µM.
Turning to `S=C1NC2(CCCCCC2)NN1c1ccccc1`, the EC50 is above 100 µM and the IC50 amounted to 30.9 µM.
Regarding `c1cc2nnc1SCCCSc1ccc(nn1)SCCCS2`, the EC50 was above 126 µM and the IC50 was 115 µM.
Regarding `Cc1nc2c(O)c3c(c(O)c2nc1C)C1C=CC3CC1`, the EC50 was above 200 µM and the IC50 came to 1.95 µM.
On to `O=[N+]([O-])c1ccc2c(c1)-c1ccccc1S2(=O)=O`, for which the result was inactive.
As to `BrCc1ccc2ccc3ccc(CBr)nc3c2n1`, the EC50 is above 200 µM and the IC50 was 3.72 µM.
The matching figures for `CN1C(C)(c2ccccc2)c2ccccc2S1(=O)=O` (stereo not given): 3.89 µM and 85.1 µM.
For `Cc1c(C(=O)Nc2ccc(Cl)c(C(F)(F)F)c2)oc2cc(O)ccc2/c1=N\NC(N)=S` the same measures were above 525 µM and 112 µM.
In the case of `CC(=O)Nc1ccc(/C=C(\NC(=O)c2ccccc2)c2nc3ccc4c(c3[nH]2)C(=O)c2ccccc2C4=O)cc1`, the result was inactive.
Take `CCCCOC(=O)NC(Nc1ccc(S(N)(=O)=O)cc1)(C(F)(F)F)C(F)(F)F`: the EC50 is above 200 µM and the IC50 was above 200 µM.
In the case of `O=C(Oc1ccc(OC(=O)c2ccccc2)c(C(=O)c2ccccc2)c1C(=O)c1ccccc1)c1ccccc1`, the EC50 was above 200 µM and the IC50 was above 200 µM.
On to `Cc1ccc(-c2c3nc(c(-c4ccc(C)cc4)c4ccc([nH]4)c(-c4ccc(C)cc4)c4nc(c(-c5ccncc5)c5ccc2[nH]5)C=C4)C=C3)cc1.Cc1ccc(-c2c3nc(c(-c4ccc(C)cc4)c4ccc([nH]4)c(-c4ccc(C)cc4)c4nc(c(-c5ccncc5)c5ccc2[nH]5)C=C4)C=C3)cc1.O=S(=O)([O-])C(F)(F)F.[Pt+2].c1ccc([PH+](CCC[PH+](c2ccccc2)c2ccccc2)c2ccccc2)cc1`, for which the outcome was inactive.
For the compound `COc1ccc(-c2coc3cc(O)ccc3c2=O)c(O)c1OC`, the EC50 was above 200 µM and the IC50 worked out at 14.8 µM.
In the case of `O=C1c2ccccc2C(=O)c2sc(Nc3ccc(Cl)cc3)nc21`, the EC50 was above 11 µM and the IC50 was 4.68 µM.
On to `CCSc1[nH]c(NC(=NC(C)C)NC(=O)c2ccccc2)c(C(N)=O)c1C(N)=O`, for which the result was inactive.
Regarding `O=c1ccn2c(n1)OC1C(O)C(CO)OC12` (stereo not given), the EC50 is above 200 µM and the IC50 was above 200 µM.
`CCCCCCCCCCCCNP(=S)(NCCCCCCCCCCCC)NCCCCCCCCCCCC`: the EC50 was above 100 µM and the IC50 was above 100 µM.
`O=S(=O)([O-])[O-].[Fe+2].[OH2+]c1c(Cl)cc(Cl)cc1/C=N/Nc1ccccn1`: the result was inactive.
On to `O=C(C(=O)n1ncc(Cl)c(Cl)c1=O)n1ncc(Cl)c(Cl)c1=O`, for which the EC50 is above 93.3 µM and the IC50 amounted to 50.1 µM.
For the compound `COC(=O)/C=C1\C(CO)OC(n2ccc(=O)[nH]c2=O)C1O` (stereo not given), the EC50 was above 200 µM and the IC50 is above 200 µM.
With `COc1ccc(C)cc1S(=O)(=O)c1c(Cl)cccc1[N+](=O)[O-]`, the EC50 was above 200 µM and the concentration for half-maximal inhibition (IC50) was above 200 µM.
As for `CCOC(=O)CC(=O)Cc1oc2c(C(C)=O)c(O)c(C)c(O)c2c1C`, the EC50 was above 200 µM and the IC50 came to 21.4 µM.
The matching figures for `COCn1c2ccc(OC(C)=O)cc2c2c(=O)oc(C)nc21`: above 200 µM and 170 µM.
For `CC(=O)OC1CN2CCC1CC2` (stereo not given) the same measures were above 200 µM and above 200 µM.
For `COC1/C=C/OC2(C)Oc3c(C)c(O)c4c(O)c(c(/C=N/Nc5ncccn5)c(O)c4c3C2=O)NC(=O)C(C)=C/C=C/C(C)C(O)C(C)C(O)C(C)C(OC(C)=O)C1C` (stereo not given) the same measures were above 151 µM and 9.12 µM.
Take `COC(=O)C(N)CSc1ccc([N+](=O)[O-])cc1[N+](=O)[O-]` (stereo not given): the EC50 is above 741 µM and the IC50 stood at 115 µM.
For `CCOP(C)(=O)/C(Cc1ccc(OC)c(OC)c1)=N\O` (stereo not given) the same measures were above 200 µM and above 200 µM.
The matching figures for `C=C[C@@](C)(/C=C/c1ccc(O)cc1)CCC=C(C)C`: above 200 µM and 25.1 µM.
The matching figures for `O=Cc1cc(C(=O)Nc2ccc(/C=C/c3ccc(NC(=O)c4cc(C=O)c5cccnc5c4O)cc3S(=O)(=O)O)c(S(=O)(=O)O)c2)c(O)c2ncccc12`: 24.5 µM and above 100 µM.
Consider `CCOC(=O)/C(C#N)=C/N(CC)/N=C/c1ccccc1`, for which the EC50 is above 200 µM and the IC50 is above 200 µM.
Take `Cc1c(/C=N/NS(=O)(=O)c2ccccc2)no[n+]1[O-]`: the EC50 is above 891 µM and the IC50 was above 200 µM.
The matching figures for `O=C(Nc1nc2ccccc2n1Cc1ccc(Cl)cc1)NC12CC3CC(CC(C3)C1)C2`: above 200 µM and above 200 µM.
The matching figures for `CC(CCC(=O)O)[C@H]1CCC2[C@@H]3CC(O)[C@@H]4CC(O)CC[C@]4(C)C3CC[C@@]21C` (stereo not given in full): above 200 µM and 72.4 µM.
For `CSc1c(C(=O)Nc2ccc(Cl)cc2)c(N)n(N)c(=O)c1C#N` the same measures were above 200 µM and 40.7 µM.
Turning to `OCC1OC(NC(=S)NCSCCC(F)(F)C(F)(F)C(F)(F)C(F)(F)C(F)(F)C(F)(F)F)C(O)C(O)C1O` (stereo not given), the EC50 is above 200 µM and the IC50 turned out to be 7.24 µM.
